Experimental data taken from patent US12036312B2, “Non-aqueous topical compositions comprising a halogenated salicylanilide” (priority 2016, dated 2024).
Where two headings read alike, the source gives them in different places.

Columns and labels:
[1] = test system: S. aureus; assay: MIC assay according to CLSI criteria, Example 2, S. aureus strains; assay type: cell-based, Staphylococcus aureus; conditions: Staphylococcus aureus
From the text: Chosen for its relevance regarding bacterial skin infections, the methicillin-resistant S. aureus (MRSA) 01 strain was used as the primary test microorganism. This strain is a community-acquired MRSA clinical isolate of USA 300 type, from a skin abscess.
Two-hundred-four other MRSA and methicillin-sensitive S. aureus strains, and 4 Streptococcus pyogenes strains, were also included in the study. These covered fusidic acid- and mupirocin-resistant strains, these two types of resistance being of clinical relevance.
Strains were conserved in Luria Bertani (LB) Broth (S. aureus) or Brain Heart Infusion (BHI) (S. pyogenes) supplemented with glycerol 15% (v/v) at −80° C., and reactivated by isolation on LB (S. aureus) or BHI (S. pyogenes) agar plates. Strains were cultivated in Mueller Hinton (MH) Broth-cation adjusted (S. aureus) or BHI (S. pyogenes). All strains were cultivated aerobically (microaerobically for S. pyogenes strains) at 37° C.
Bacterial cultures were stopped in their exponential growth phase and plates were inoculated with the approximate concentration of 5×10^5 cells per well. Plates were incubated at 37° C. for 18 hours (S. aureus) or 24 hours (S. pyogenes). Optical density at a wavelength of 600 nm was measured at the end of the incubation time.

[2] = test system: P. acnes; assay type: cell-based, Propionibacterium acnes; conditions: for Frequency of mutation/ml: MIC × 4

C=C[C@]1(C)C[C@@H](OC(=O)CS[C@@H]2C[C@H]3CC[C@@H](C2)N3C)[C@]2(C)[C@H](C)CC[C@]3(CCC(=O)[C@H]32)[C@@H](C)[C@@H]1O [Retapamulin, retapamulin]
0.125 µg/mL: MIC ([1]; MRSA, strain MRSA 21)
1.46e-08 mL⁻¹: Frequency of mutation/ml ([2]; P. acnes strain CSS3023)
1.09e-08 mL⁻¹: Frequency of mutation/ml ([2]; P. acnes strain 1044)
2.17e-08 mL⁻¹: Frequency of mutation/ml ([2]; P. acnes strain 998)
0.02 µg/mL: MIC ([1]; MRSA, strain MRSA 27b) | MIC ([1]; MRSA, strain MRSA 41) | MIC ([1]; MRSA, strain MRSA 44) | MIC ([1]; MRSA, strain MRSA 45) | MIC ([1]; MRSA, strain MRSA 46) | MIC ([1]; MRSA, strain MRSA 47) | MIC ([1]; MRSA, strain MRSA 48) | MIC ([1]; MRSA, strain MRSA 49) | MIC ([1]; MRSA, strain MRSA 50) | MIC ([1]; MRSA, strain MRSA 52) | MIC ([1]; MRSA, strain MRSA 55) | MIC ([1]; MRSA, strain MRSA 57) | MIC ([1]; MRSA, strain MRSA 58) | MIC ([1]; MRSA, strain MRSA 59) | MIC ([1]; MRSA, strain MRSA 60) | MIC ([1]; MRSA, strain MRSA 61) | MIC ([1]; MRSA, strain MRSA 62) | MIC ([1]; MRSA, strain MRSA 63) | MIC ([1]; MRSA, strain MRSA 64) | MIC ([1]; MRSA, strain MRSA 65) | MIC ([1]; MRSA, strain MRSA 66) | MIC ([1]; MRSA, strain MRSA 67) | MIC ([1]; MRSA, strain MRSA 68) | MIC ([1]; MRSA, strain MRSA 70) | MIC ([1]; MRSA, strain MRSA 80) | MIC ([1]; MRSA, strain MRSA 87) | MIC ([1]; MRSA, strain MRSA 89) | MIC ([1]; MRSA, strain MRSA 93) | MIC ([1]; strain E5-1030482) | MIC ([1]; strain E5-1033091)
16 µg/mL: MIC ([1]; MRSA, strain MRSA 31)
1 µg/mL: MIC ([1]; MRSA, strain MRSA 100)
0.25 µg/mL: MIC ([1]; strain 115690C)
1.25e-08 mL⁻¹: Frequency of mutation/ml ([2]; P. acnes strain CSS3288)
~1×10^−8: frequency of mutation of resistance ([2]; P. acnes)
0.06 µg/mL: MIC ([1]; MRSA, strain MRSA 01) | MIC ([1]; MRSA, strain MRSA 02) | MIC ([1]; MRSA, strain MRSA 04) | MIC ([1]; MRSA, strain MRSA 07) | MIC ([1]; MRSA, strain MRSA 09) | MIC ([1]; MRSA, strain MRSA 10) | MIC ([1]; MRSA, strain MRSA 11) | MIC ([1]; MRSA, strain MRSA 13) | MIC ([1]; MRSA, strain MRSA 15) | MIC ([1]; MRSA, strain MRSA 16) | MIC ([1]; MRSA, strain MRSA 18) | MIC ([1]; MRSA, strain MRSA 20) | MIC ([1]; MRSA, strain MRSA 22) | MIC ([1]; MRSA, strain MRSA 23) | MIC ([1]; MRSA, strain MRSA 24) | MIC ([1]; MRSA, strain MRSA 25) | MIC ([1]; MRSA, strain MRSA 26) | MIC ([1]; MRSA, strain MRSA 27) | MIC ([1]; MRSA, strain MRSA 29) | MIC ([1]; MRSA, strain MRSA 32) | MIC ([1]; MRSA, strain MRSA 33) | MIC ([1]; MRSA, strain MRSA 34) | MIC ([1]; MRSA, strain MRSA 36) | MIC ([1]; MRSA, strain MRSA 37) | MIC ([1]; MRSA, strain MRSA 38) | MIC ([1]; MRSA, strain MRSA 39) | MIC ([1]; MRSA, strain MRSA 42) | MIC ([1]; MRSA, strain MRSA 43) | MIC ([1]; MRSA, strain MRSA 90) | MIC ([1]; MRSA, strain MRSA 91) | MIC ([1]; MRSA, strain MRSA 92) | MIC ([1]; MRSA, strain MRSA 106) | MIC ([1]; MRSA, strain MRSA 107) | MIC ([1]; strain 9-2642158) | MIC ([1]; strain 9-2955245) | MIC ([1]; strain 000274T) | MIC ([1]; strain 114660U) | MIC ([1]; strain 115015T) | MIC ([1]; strain 115370U) | MIC ([1]; strain 115584D) | MIC ([1]; strain 115740E) | MIC ([1]; strain 115810E) | MIC ([1]; strain E5-1030440) | MIC ([1]; strain E5-1030472) | MIC ([1]; strain E5-1035775) | MIC ([1]; strain E5-1037958) | MIC ([1]; strain E5-1038286) | MIC ([1]; strain E5-1039684) | MIC ([1]; strain E5-1039697) | MIC ([1]; strain E5-1043668) | MIC ([1]; strain E5-1045179) | MIC ([1]; strain E5-1046020) | MIC ([1]; strain E5-1046039) | MIC ([1]; strain E5-1046074) | MIC ([1]; strain E5-1046085) | MIC ([1]; strain E5-1046096) | MIC ([1]; strain E5-1046297) | MIC ([1]; strain E5-1046723) | MIC ([1]; strain E5-1048428) | MIC ([1]; strain E5-1048654) | MIC ([1]; strain E5-1048670) | MIC ([1]; strain K000772) | MIC ([1]; strain R000019) | MIC ([1]; strain R000024) | MIC ([1]; strain U115579)
< 0.01 µg/mL: MIC ([1]; MRSA, strain MRSA 56) | MIC ([1]; MRSA, strain MRSA 69) | MIC ([1]; MRSA, strain MRSA 71) | MIC ([1]; MRSA, strain MRSA 79)
0.03 µg/mL: MIC ([1]; ATCC29213, strain ATCC 29213) | MIC ([1]; MRSA, strain MRSA 03) | MIC ([1]; MRSA, strain MRSA 05) | MIC ([1]; MRSA, strain MRSA 06) | MIC ([1]; MRSA, strain MRSA 08) | MIC ([1]; MRSA, strain MRSA 12) | MIC ([1]; MRSA, strain MRSA 14) | MIC ([1]; MRSA, strain MRSA 17) | MIC ([1]; MRSA, strain MRSA 19) | MIC ([1]; MRSA, strain MRSA 28) | MIC ([1]; MRSA, strain MRSA 30) | MIC ([1]; MRSA, strain MRSA 35) | MIC ([1]; MRSA, strain MRSA 40) | MIC ([1]; MRSA, strain MRSA 51) | MIC ([1]; MRSA, strain MRSA 53) | MIC ([1]; MRSA, strain MRSA 54) | MIC ([1]; MRSA, strain MRSA 72) | MIC ([1]; MRSA, strain MRSA 73) | MIC ([1]; MRSA, strain MRSA 74) | MIC ([1]; MRSA, strain MRSA 75) | MIC ([1]; MRSA, strain MRSA 76) | MIC ([1]; MRSA, strain MRSA 77) | MIC ([1]; MRSA, strain MRSA 78) | MIC ([1]; MRSA, strain MRSA 81) | MIC ([1]; MRSA, strain MRSA 82) | MIC ([1]; MRSA, strain MRSA 83) | MIC ([1]; MRSA, strain MRSA 84) | MIC ([1]; MRSA, strain MRSA 85) | MIC ([1]; MRSA, strain MRSA 86) | MIC ([1]; MRSA, strain MRSA 88) | MIC ([1]; MRSA, strain MRSA 94) | MIC ([1]; MRSA, strain MRSA 95) | MIC ([1]; MRSA, strain MRSA 96) | MIC ([1]; MRSA, strain MRSA 97) | MIC ([1]; MRSA, strain MRSA 98) | MIC ([1]; MRSA, strain MRSA 99) | MIC ([1]; MRSA, strain MRSA 101) | MIC ([1]; MRSA, strain MRSA 102) | MIC ([1]; MRSA, strain MRSA 103) | MIC ([1]; MRSA, strain MRSA 104) | MIC ([1]; MRSA, strain MRSA 105) | MIC ([1]; MRSA, strain MRSA 108) | MIC ([1]; MRSA, strain MRSA 109) | MIC ([1]; MRSA, strain MRSA 110) | MIC ([1]; MRSA, strain MRSA 111) | MIC ([1]; MRSA, strain MRSA 112) | MIC ([1]; MRSA, strain MRSA 113) | MIC ([1]; MSSA, strain MSSA 01) | MIC ([1]; MSSA, strain MSSA 02) | MIC ([1]; NEWMAN, strain Newman) | MIC ([1]; strain 9-1862936) | MIC ([1]; strain 9-2625962) | MIC ([1]; strain 9-26422166) | MIC ([1]; strain 000040C) | MIC ([1]; strain 000041C) | MIC ([1]; strain 115242C) | MIC ([1]; strain 115263C) | MIC ([1]; strain 115268C) | MIC ([1]; strain 115273C) | MIC ([1]; strain 115295C) | MIC ([1]; strain 115303C) | MIC ([1]; strain 115427C) | MIC ([1]; strain 115445C) | MIC ([1]; strain 115561C) | MIC ([1]; strain 115628T) | MIC ([1]; strain 115691T) | MIC ([1]; strain 115903T) | MIC ([1]; strain 116122T) | MIC ([1]; strain E5-1029252) | MIC ([1]; strain E5-1029558) | MIC ([1]; strain E5-1030469) | MIC ([1]; strain E5-1033076 (first listing, r204)) | MIC ([1]; strain E5-1033076 (second listing, r205)) | MIC ([1]; strain E5-1033088) | MIC ([1]; strain E5-1035277) | MIC ([1]; strain E5-1035284) | MIC ([1]; strain E5-1035779) | MIC ([1]; strain E5-1037971) | MIC ([1]; strain E5-1038279) | MIC ([1]; strain E5-1038294) | MIC ([1]; strain E5-1041977) | MIC ([1]; strain E5-1041979) | MIC ([1]; strain E5-1041980) | MIC ([1]; strain E5-1041987) | MIC ([1]; strain E5-1043184) | MIC ([1]; strain E5-1046019) | MIC ([1]; strain E5-1046070) | MIC ([1]; strain E5-1046296) | MIC ([1]; strain E5-1046298) | MIC ([1]; strain E5-1047585) | MIC ([1]; strain E5-1047606) | MIC ([1]; strain E5-1047924) | MIC ([1]; strain E5-1048204) | MIC ([1]; strain EEFIC 01) | MIC ([1]; strain EEFIC 02) | MIC ([1]; strain K000796) | MIC ([1]; strain K000863) | MIC ([1]; strain K000864) | MIC ([1]; strain K000866) | MIC ([1]; strain K115498) | MIC ([1]; strain K115688) | MIC ([1]; strain K115689) | MIC ([1]; strain R000020)
